Values joined by “and” are separate entries in the source; they are usually repeats but may differ in a detail not shown here. Equal values may be shown once. Toxic doses and inconclusive results are not listed. Rule as the data show it: active = T/C of 150% or more; inactive = T/C below 125%.
System: L1210 leukemia ip in BDF1 mice, survival T/C
Experiment: NCI In Vivo Anticancer Drug Screen. Data for tumor model L1210 Leukemia (intraperitoneal) in B6D2F1 (BDF1) mice
Details: endpoint: mean survival time, higher = longer survival
Outline: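 Survival endpoint. Drug-treated group vs vehicle group, expressed as T divided by C. Tumor passaged by transplantation.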

[1] = dose: 50.0 mg/kg/injection, schedule: Q01DX009 (ip), vehicle: Klucel (hydroxypropylcellulose) (HPC)
[2] = dose: 100.0 mg/kg/injection, schedule: Q04DX003 (ip), vehicle: Klucel (hydroxypropylcellulose) (HPC)
[3] = dose: 200.0 mg/kg/injection, schedule: Q04DX003 (ip), vehicle: Klucel (hydroxypropylcellulose) (HPC)
[4] = dose: 400.0 mg/kg/injection, schedule: Q04DX003 (ip), vehicle: Klucel (hydroxypropylcellulose) (HPC)
[5] = dose: 50.0 mg/kg/injection, schedule: Q01DX001 (ip), vehicle: saline
[6] = dose: 100.0 mg/kg/injection, schedule: Q01DX001 (ip), vehicle: saline with Tween-80
[7] = dose: 100.0 mg/kg/injection, schedule: Q04DX002 (ip), vehicle: Klucel (hydroxypropylcellulose) (HPC)
[8] = dose: 200.0 mg/kg/injection, schedule: Q04DX002 (ip), vehicle: Klucel (hydroxypropylcellulose) (HPC)
[9] = dose: 400.0 mg/kg/injection, schedule: Q04DX002 (ip), vehicle: Klucel (hydroxypropylcellulose) (HPC)
[10] = dose: 25.0 mg/kg/injection, schedule: Q04DX003 (ip), vehicle: saline with Tween-80
[11] = dose: 50.0 mg/kg/injection, schedule: Q04DX003 (ip), vehicle: saline with Tween-80
[12] = dose: 100.0 mg/kg/injection, schedule: Q04DX003 (ip), vehicle: saline with Tween-80
[13] = dose: 200.0 mg/kg/injection, schedule: Q04DX003 (ip), vehicle: saline with Tween-80
[14] = dose: 400.0 mg/kg/injection, schedule: Q04DX003 (ip), vehicle: saline with Tween-80
[15] = dose: 100.0 mg/kg/injection, schedule: Q01DX001 (ip), vehicle: saline
[16] = dose: 200.0 mg/kg/injection, schedule: Q01DX001 (ip), vehicle: saline
[17] = dose: 400.0 mg/kg/injection, schedule: Q01DX001 (ip), vehicle: saline

Measured: T/C

O=C(COc1ccc(Cl)cc1)Nc1cccnc1
inactive: dose: 25.0 mg/kg/injection, schedule: Q01DX009 (ip), vehicle: Klucel (hydroxypropylcellulose) (HPC) 100 % of control | dose: 25.0 mg/kg/injection, schedule: Q04DX003 (ip), vehicle: Klucel (hydroxypropylcellulose) (HPC) 100 % of control | [1] 92 % of control | dose: 50.0 mg/kg/injection, schedule: Q04DX003 (ip), vehicle: Klucel (hydroxypropylcellulose) (HPC) 94 % of control | [2] 103 % of control

NC(=O)NC(NC(=O)NC(NC(N)=O)c1ccco1)c1ccco1 (stereo unspecified)
inactive: [2] 102 % of control | [3] 96 % of control | [4] 88 % of control

CC[N+](CC)(CC)CCCNC(c1ccccc1)C(Cl)(Cl)Cl (stereo unspecified)
inactive: dose: 12.5 mg/kg/injection, schedule: Q01DX001 (ip), vehicle: saline 95 % of control | dose: 25.0 mg/kg/injection, schedule: Q01DX001 (ip), vehicle: saline 97 % of control | [5] 95 % of control

OC1(c2ccccc2)c2cscc2C(O)(c2ccccc2)c2c(Cl)sc(Cl)c21 (stereo unspecified)
inactive: [6] 91 % of control | dose: 400.0 mg/kg/injection, schedule: Q01DX001 (ip), vehicle: saline with Tween-80 87 % of control

COC(=O)COc1ccc2ccccc2c1Cl
inactive: [7] 86 % of control | [8] 99 % of control | [9] 96 % of control

CCN(CC)C(=S)[S][Sn]([c]1ccccc1)([c]1ccccc1)[c]1ccccc1
inactive: dose: 100.0 mg/kg/injection, schedule: Q01DX001 (ip), vehicle: steriod suspending solution 109 % of control | dose: 200.0 mg/kg/injection, schedule: Q01DX001 (ip), vehicle: steriod suspending solution 98 % of control | dose: 400.0 mg/kg/injection, schedule: Q01DX001 (ip), vehicle: steriod suspending solution 98 % of control

CC1([N+](=O)[O-])COP(=O)(NCc2ccccc2)OC1 (stereo unspecified)
inactive: dose: 50.0 mg/kg/injection, schedule: Q01DX001 (ip), vehicle: carboxymethylcellulose (CMC) 97 % of control | dose: 100.0 mg/kg/injection, schedule: Q01DX001 (ip), vehicle: carboxymethylcellulose (CMC) 107 % of control | dose: 200.0 mg/kg/injection, schedule: Q01DX001 (ip), vehicle: carboxymethylcellulose (CMC) 109 % of control | dose: 400.0 mg/kg/injection, schedule: Q01DX001 (ip), vehicle: carboxymethylcellulose (CMC) 97 % of control

CCOC(=O)CCCCN(C(=O)OCc1ccccc1)N(C)C(=O)OCc1ccccc1
inactive: [10] 115 % of control | [11] 95 % of control | [12] 101 % of control | [13] 103 % of control | [14] 97 % of control

COc1ccc(/C(C)=N\NC(N)=O)cc1
inactive: dose: 50.0 mg/kg/injection, schedule: Q04DX002 (ip), vehicle: Klucel (hydroxypropylcellulose) (HPC) 111 % of control | [7] 105 % of control | [8] 94 % of control | [9] 99 % of control

O=C(CCCCCCCCC(=O)Nc1cccc(C2=NCCN2)c1)Nc1cccc(C2=NCCN2)c1
inactive: dose: 2.5 mg/kg/injection, schedule: Q01DX Z (ip), vehicle: saline 95 % of control | dose: 5.0 mg/kg/injection, schedule: Q01DX Z (ip), vehicle: saline 91 % of control | dose: 10.0 mg/kg/injection, schedule: Q01DX Z (ip), vehicle: saline 91 % of control

CCCCCC1OC1CC1OC1CCCCCCCC(=O)OC (stereo unspecified)
inactive: [15] 109 % of control | [16] 95 % of control | [17] 102 % of control

O=C(NCCCCCCNC(=O)Nc1ccc(C2=NCCN2)cc1)Nc1ccc(C2=NCCN2)cc1
inactive: dose: 62.0 mg/kg/injection, schedule: Q01DX Z (ip), vehicle: carboxymethylcellulose (CMC) 106 % of control | dose: 125.0 mg/kg/injection, schedule: Q01DX Z (ip), vehicle: carboxymethylcellulose (CMC) 92 % of control | dose: 250.0 mg/kg/injection, schedule: Q01DX Z (ip), vehicle: carboxymethylcellulose (CMC) 109 % of control | dose: 500.0 mg/kg/injection, schedule: Q01DX Z (ip), vehicle: carboxymethylcellulose (CMC) 102 % of control

COc1ccccc1C(=O)NS(=O)(=O)c1ccc(Cl)cc1
inactive: dose: 100.0 mg/kg/injection, schedule: Q04DX003 (ip), vehicle: acetone 113 % of control | dose: 200.0 mg/kg/injection, schedule: Q04DX003 (ip), vehicle: acetone 101 % of control | dose: 400.0 mg/kg/injection, schedule: Q04DX003 (ip), vehicle: acetone 96 % of control

O=c1ccn(Cc2ccccc2)c(SCc2ccccc2)n1
inactive: [5] 105 % of control | [1] 102 % of control | [15] 109 % of control | dose: 100.0 mg/kg/injection, schedule: Q01DX009 (ip), vehicle: Klucel (hydroxypropylcellulose) (HPC) 95 % of control | [16] 91 % of control | dose: 200.0 mg/kg/injection, schedule: Q01DX009 (ip), vehicle: Klucel (hydroxypropylcellulose) (HPC) 98 % of control | [17] 105 % of control

CCc1nc(Cl)c(Cl)[nH]1
inactive: [6] 107 % of control | dose: 200.0 mg/kg/injection, schedule: Q01DX001 (ip), vehicle: saline with Tween-80 103 % of control

CCCCCCC(=O)N(CC)CC
inactive: dose: 100.0 mg/kg/injection, schedule: Q04DX002 (ip), vehicle: saline 94 % of control | dose: 200.0 mg/kg/injection, schedule: Q04DX002 (ip), vehicle: saline 98 % of control | dose: 400.0 mg/kg/injection, schedule: Q04DX002 (ip), vehicle: saline 91 % of control

C[n+]1cccc2c3ccccc3c(-c3ccccc3)cc21
inactive: dose: 0.78 mg/kg/injection, schedule: Q01DX009 (ip), vehicle: water 86 % of control | dose: 1.56 mg/kg/injection, schedule: Q01DX009 (ip), vehicle: water 102 % of control | dose: 3.12 mg/kg/injection, schedule: Q01DX009 (ip), vehicle: water 87 % of control | dose: 6.25 mg/kg/injection, schedule: Q01DX009 (ip), vehicle: water 112 % of control and 92 % of control | dose: 12.5 mg/kg/injection, schedule: Q04DX003 (ip), vehicle: water 104 % of control | dose: 25.0 mg/kg/injection, schedule: Q04DX003 (ip), vehicle: water 104 % of control

CN(C)c1ccc(CN2CCCN(Cc3ccc(N(C)C)cc3)C2c2ccccc2O)cc1
inactive: dose: 100.0 mg/kg/injection, schedule: Q01DX009 (ip), vehicle: saline with Tween-80 100 % of control | [2] 97 % of control | dose: 200.0 mg/kg/injection, schedule: Q01DX009 (ip), vehicle: saline with Tween-80 107 % of control | [3] 100 % of control | dose: 400.0 mg/kg/injection, schedule: Q01DX009 (ip), vehicle: saline with Tween-80 106 % of control | [4] 97 % of control

O=P(c1ccco1)(c1ccco1)c1ccco1
inactive: [10] 101 % of control | [11] 95 % of control

CC(=O)OCC1OC(Oc2ccc([N+](=O)[O-])cc2[N+](=O)[O-])C(OC(C)=O)C(OC(C)=O)C1OC(C)=O (stereo unspecified)
inactive: [12] 100 % of control | [13] 91 % of control | [14] 91 % of control

OC1CCCSC1 (stereo unspecified)
inactive: dose: 100.0 mg/kg/injection, schedule: Q01DX009 (ip), vehicle: saline 102 % of control | dose: 100.0 mg/kg/injection, schedule: Q04DX003 (ip), vehicle: saline 96 % of control | dose: 200.0 mg/kg/injection, schedule: Q01DX009 (ip), vehicle: saline 98 % of control | dose: 200.0 mg/kg/injection, schedule: Q04DX003 (ip), vehicle: saline 100 % of control | dose: 400.0 mg/kg/injection, schedule: Q01DX009 (ip), vehicle: saline 98 % of control | dose: 400.0 mg/kg/injection, schedule: Q04DX003 (ip), vehicle: saline 89 % of control

COc1ccccc1N1C(=O)CC(Sc2ccccc2N)C1=O (stereo unspecified)
inactive: dose: 100.0 mg/kg/injection, schedule: Q01DX009 (ip), vehicle: saline sonified 95 % of control | dose: 100.0 mg/kg/injection, schedule: Q04DX003 (ip), vehicle: saline sonified 87 % of control | dose: 200.0 mg/kg/injection, schedule: Q01DX009 (ip), vehicle: saline sonified 88 % of control | dose: 200.0 mg/kg/injection, schedule: Q04DX003 (ip), vehicle: saline sonified 94 % of control | dose: 400.0 mg/kg/injection, schedule: Q01DX009 (ip), vehicle: saline sonified 93 % of control | dose: 400.0 mg/kg/injection, schedule: Q04DX003 (ip), vehicle: saline sonified 96 % of control

From PubChem BioAssay AID248 (DTP/NCI, 2004)
